Data: patent US20140094485A1, “SOLID STATE FORMS OF HIV INHIBITOR” (Gilead Sciences, Inc., priority 2012, published 2014)
Where a name gives a salt, the structure may show the parent alone.

How the values were obtained:
[1] = Thermal gravimetric analysis (TGA); type: physicochemical; conditions: heating up to 175° C.; FIG. 4
Description: The TGA analysis was conducted on a […]. The thermal gravimetric curve was obtained on a sample heated at 10° C. per minute in a open cup under a nitrogen flow.

[2] = Tabletability (tablet tensile strength as a function of upper punch compression pressure); type: physicochemical; conditions: for Tablet Tensile Strength: immediate release formulation, Form A
From the text: As used herein, the term “tabletability” refers to the capacity of a powdered material to be transformed into a tablet of specified strength under the effect of compaction pressure. Tabletability is the tensile strength as a function of compression force and describes the effectiveness of the applied pressure in increasing the tensile strength of the tablet.

With `Cc1nc2ccccc2c(-c2ccc3c4c(ccnc24)CCO3)c1[C@H](OC(C)(C)C)C(=O)O` (atropisomer, axis not shown) [hemi-succinate salt of Compound (I), (2S)-2-tert-butoxy-2-(4-(2,3-dihydropyrano[4,3,2-de]quinolin-7-yl)-2-methylquinolin-3-yl)acetic acid] the “weight loss during heating” value [1] was “minimal weight loss”, the “Tablet Tensile Strength” value ([2]; Upper Punch Compression Pressure 98 MPa) was 2.17 MPa and the “Tablet Tensile Strength” value ([2]; Upper Punch Compression Pressure 140 MPa) was 2.94 MPa. For the same molecule, the “Tablet Tensile Strength” value ([2]; Upper Punch Compression Pressure 197 MPa) was 3.18 MPa, the “Tablet Tensile Strength” value ([2]; Upper Punch Compression Pressure 253 MPa) was 3.41 MPa and the tabletability ([2]; result in words, FIG. 5) was “improved tabletability”.
